In ChEMBL document CHEMBL5465560, “Selectivity Literature for EUbOPEN Chemogenomic Library” (2024):
Each block holds one compound with its values, some of them ahead of it.

What was measured:
[1] = target: Vascular endothelial growth factor receptor 1 (Homo sapiens) (UniProt P17948); assay: Selectivity interaction (Upstate Kinase Profiler service (Millipore)) EUB0000056c FLT1; details: at 1 µM
[2] = target: Myosin light chain kinase, smooth muscle (Homo sapiens, UniProt Q15746); assay: Selectivity interaction (Kinase panel (Invitrogen)) EUB0000639a MYLK; details: at 200 nM
[3] = target: T1, Serine/threonine-protein kinase RIO1 (Homo sapiens) (UniProt Q9BRS2); assay: Selectivity interaction (Kinase panel (DSF assay)) EUB0001559a RIOK1
T1 sequence (whole entry): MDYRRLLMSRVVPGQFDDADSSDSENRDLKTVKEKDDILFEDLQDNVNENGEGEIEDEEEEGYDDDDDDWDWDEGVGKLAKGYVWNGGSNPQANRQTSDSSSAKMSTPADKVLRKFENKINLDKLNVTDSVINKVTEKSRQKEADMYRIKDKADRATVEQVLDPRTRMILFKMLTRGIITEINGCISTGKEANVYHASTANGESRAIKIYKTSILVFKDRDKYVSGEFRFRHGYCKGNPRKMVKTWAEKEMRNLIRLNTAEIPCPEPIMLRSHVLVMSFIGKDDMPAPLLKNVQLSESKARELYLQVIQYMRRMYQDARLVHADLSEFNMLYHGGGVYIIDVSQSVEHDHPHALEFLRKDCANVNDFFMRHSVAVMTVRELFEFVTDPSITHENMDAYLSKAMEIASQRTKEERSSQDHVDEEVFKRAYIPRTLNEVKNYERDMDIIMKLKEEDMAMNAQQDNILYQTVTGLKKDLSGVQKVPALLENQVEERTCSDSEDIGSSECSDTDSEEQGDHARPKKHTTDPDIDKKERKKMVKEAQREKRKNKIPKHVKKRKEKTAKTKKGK

[4] = target: STE20/SPS1-related proline-alanine-rich protein kinase (Homo sapiens) (UniProt Q9UEW8); assay: Selectivity interaction (Kinase panel (DSF assay)) EUB0001559a STK39
[5] = target: Ribosomal protein S6 kinase alpha-1 (Homo sapiens, UniProt Q15418); assay: Selectivity interaction (KinomeScan (DiscoverX)) EUB0000595a RPS6KA1; details: at 10 µM
[6] = target: Ribosomal protein S6 kinase alpha-3 (Homo sapiens, UniProt P51812); assay: Selectivity interaction (Ambit KINOMEscan and KiNATiv profiling in Jurkat cells) EUB0000090b RPS6KA3; type: cell-based; details: at 1 µM
[7] = target: Dual specificity mitogen-activated protein kinase kinase 2 (Homo sapiens) (UniProt P36507); assay: Selectivity interaction (KinomeScan (DiscoverX)) EUB0001550a MAP2K2; details: at 1 µM
[8] = target: T2, Bromodomain-containing protein 1 (Homo sapiens) (UniProt O95696); assay: Selectivity interaction (Bromodomain panel (DSF asssay)) EUB0000270b BRD1
T2 sequence (whole entry): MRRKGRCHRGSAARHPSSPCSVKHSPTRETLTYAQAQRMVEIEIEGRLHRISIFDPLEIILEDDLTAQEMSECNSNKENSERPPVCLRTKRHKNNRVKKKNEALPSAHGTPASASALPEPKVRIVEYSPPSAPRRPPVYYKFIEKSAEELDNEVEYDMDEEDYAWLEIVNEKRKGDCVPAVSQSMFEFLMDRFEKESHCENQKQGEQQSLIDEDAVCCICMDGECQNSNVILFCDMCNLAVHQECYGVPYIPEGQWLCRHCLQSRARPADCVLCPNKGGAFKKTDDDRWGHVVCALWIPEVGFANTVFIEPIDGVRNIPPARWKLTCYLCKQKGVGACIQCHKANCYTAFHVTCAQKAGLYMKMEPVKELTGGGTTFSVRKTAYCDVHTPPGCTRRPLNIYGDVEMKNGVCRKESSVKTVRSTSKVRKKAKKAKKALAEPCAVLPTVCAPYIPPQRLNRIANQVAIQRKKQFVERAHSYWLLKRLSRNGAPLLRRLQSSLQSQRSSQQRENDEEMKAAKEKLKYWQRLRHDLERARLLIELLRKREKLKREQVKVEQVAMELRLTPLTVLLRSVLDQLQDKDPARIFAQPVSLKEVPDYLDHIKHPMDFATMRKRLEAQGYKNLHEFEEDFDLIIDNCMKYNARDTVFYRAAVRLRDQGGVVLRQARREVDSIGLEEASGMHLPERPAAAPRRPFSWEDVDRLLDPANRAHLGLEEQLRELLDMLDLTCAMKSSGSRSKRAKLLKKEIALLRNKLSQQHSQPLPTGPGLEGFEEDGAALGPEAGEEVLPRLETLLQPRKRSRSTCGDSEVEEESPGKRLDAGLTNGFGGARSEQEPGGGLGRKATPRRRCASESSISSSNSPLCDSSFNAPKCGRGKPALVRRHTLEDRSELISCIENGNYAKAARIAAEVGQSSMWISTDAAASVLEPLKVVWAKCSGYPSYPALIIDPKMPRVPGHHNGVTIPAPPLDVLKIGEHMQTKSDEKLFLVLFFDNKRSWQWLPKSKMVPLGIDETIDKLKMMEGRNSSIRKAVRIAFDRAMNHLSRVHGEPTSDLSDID

[9] = target: T3, Serine/threonine-protein kinase 3 (Homo sapiens) (UniProt Q13188); assay: Selectivity interaction (KinomeScan (DiscoverX)) EUB0000229b STK3; details: at 10 µM
T3 sequence (whole entry): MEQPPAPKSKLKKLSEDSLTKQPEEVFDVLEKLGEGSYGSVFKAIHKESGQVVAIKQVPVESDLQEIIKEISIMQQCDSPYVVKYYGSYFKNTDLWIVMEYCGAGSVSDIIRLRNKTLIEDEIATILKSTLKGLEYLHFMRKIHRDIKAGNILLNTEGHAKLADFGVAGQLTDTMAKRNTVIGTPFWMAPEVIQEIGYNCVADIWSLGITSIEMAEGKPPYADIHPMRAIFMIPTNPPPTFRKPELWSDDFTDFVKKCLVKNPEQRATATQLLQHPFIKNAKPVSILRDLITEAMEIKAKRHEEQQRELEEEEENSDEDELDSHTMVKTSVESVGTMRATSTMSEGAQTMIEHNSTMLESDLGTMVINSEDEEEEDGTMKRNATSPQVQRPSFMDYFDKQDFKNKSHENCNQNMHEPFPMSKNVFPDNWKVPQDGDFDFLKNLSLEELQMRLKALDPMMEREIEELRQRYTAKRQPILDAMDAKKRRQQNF

[10] = target: Receptor tyrosine-protein kinase erbB-3 (Homo sapiens) (UniProt P21860); assay: Selectivity interaction (KinomeScan (DiscoverX)) EUB0000229b ERBB3; details: at 10 µM
[11] = target: Serine/threonine-protein kinase 26 (Homo sapiens, UniProt Q9P289); details: at 10 µM
[12] = target: Rho-associated protein kinase 2 (Homo sapiens, UniProt O75116); details: at 10 µM
[13] = target: Serine/threonine-protein kinase/endoribonuclease IRE1 (Homo sapiens) (UniProt O75460); assay: Selectivity interaction (ActivX KiNativ screen (ex vivo kinase selectivity in human PBMCs)) EUB0001619a ERN1; type: cell-based; details: PBMC, at 1 µM
Serine/threonine-protein kinase/endoribonuclease IRE1 (Homo sapiens), sequence (O75460 19-977 limits assumed): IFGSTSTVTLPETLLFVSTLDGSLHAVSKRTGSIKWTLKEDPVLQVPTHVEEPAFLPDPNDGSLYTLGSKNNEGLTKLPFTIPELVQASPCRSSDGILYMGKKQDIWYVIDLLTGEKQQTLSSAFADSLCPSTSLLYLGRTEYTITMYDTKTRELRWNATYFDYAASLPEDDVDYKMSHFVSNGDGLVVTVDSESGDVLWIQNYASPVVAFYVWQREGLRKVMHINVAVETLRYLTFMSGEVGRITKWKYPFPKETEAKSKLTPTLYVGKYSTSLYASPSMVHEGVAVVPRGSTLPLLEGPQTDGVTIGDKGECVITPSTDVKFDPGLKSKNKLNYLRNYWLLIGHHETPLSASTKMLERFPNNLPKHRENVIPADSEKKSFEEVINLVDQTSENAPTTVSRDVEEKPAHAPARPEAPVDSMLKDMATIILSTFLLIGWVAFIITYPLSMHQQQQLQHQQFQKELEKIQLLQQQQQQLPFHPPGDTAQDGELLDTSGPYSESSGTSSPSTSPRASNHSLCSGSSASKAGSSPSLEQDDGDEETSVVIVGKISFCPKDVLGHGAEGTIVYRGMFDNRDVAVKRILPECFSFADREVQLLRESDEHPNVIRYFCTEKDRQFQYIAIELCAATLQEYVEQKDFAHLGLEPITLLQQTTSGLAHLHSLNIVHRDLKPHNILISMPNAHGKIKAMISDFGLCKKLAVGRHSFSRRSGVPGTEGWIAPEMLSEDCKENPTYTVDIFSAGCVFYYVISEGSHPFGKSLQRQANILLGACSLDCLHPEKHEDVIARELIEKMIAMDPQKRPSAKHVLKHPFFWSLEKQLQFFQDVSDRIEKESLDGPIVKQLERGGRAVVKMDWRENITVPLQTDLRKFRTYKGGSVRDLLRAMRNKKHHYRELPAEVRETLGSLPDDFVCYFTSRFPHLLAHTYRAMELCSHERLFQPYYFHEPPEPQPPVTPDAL

Serine/threonine-protein kinase 26, sequence (Q9P289 2-416 limits assumed): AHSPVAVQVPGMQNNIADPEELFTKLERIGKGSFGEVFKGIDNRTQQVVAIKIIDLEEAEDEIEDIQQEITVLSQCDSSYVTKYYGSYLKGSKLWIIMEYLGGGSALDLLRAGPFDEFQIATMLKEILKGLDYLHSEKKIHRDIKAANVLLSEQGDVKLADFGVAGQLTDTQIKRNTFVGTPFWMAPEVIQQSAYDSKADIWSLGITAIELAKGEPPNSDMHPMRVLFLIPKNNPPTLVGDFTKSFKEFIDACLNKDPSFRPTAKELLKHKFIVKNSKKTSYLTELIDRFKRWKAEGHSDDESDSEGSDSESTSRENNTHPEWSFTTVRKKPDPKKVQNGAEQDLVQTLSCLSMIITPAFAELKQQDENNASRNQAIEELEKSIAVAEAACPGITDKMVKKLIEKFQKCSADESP
Rho-associated protein kinase 2, sequence (O75116 whole entry, looked up): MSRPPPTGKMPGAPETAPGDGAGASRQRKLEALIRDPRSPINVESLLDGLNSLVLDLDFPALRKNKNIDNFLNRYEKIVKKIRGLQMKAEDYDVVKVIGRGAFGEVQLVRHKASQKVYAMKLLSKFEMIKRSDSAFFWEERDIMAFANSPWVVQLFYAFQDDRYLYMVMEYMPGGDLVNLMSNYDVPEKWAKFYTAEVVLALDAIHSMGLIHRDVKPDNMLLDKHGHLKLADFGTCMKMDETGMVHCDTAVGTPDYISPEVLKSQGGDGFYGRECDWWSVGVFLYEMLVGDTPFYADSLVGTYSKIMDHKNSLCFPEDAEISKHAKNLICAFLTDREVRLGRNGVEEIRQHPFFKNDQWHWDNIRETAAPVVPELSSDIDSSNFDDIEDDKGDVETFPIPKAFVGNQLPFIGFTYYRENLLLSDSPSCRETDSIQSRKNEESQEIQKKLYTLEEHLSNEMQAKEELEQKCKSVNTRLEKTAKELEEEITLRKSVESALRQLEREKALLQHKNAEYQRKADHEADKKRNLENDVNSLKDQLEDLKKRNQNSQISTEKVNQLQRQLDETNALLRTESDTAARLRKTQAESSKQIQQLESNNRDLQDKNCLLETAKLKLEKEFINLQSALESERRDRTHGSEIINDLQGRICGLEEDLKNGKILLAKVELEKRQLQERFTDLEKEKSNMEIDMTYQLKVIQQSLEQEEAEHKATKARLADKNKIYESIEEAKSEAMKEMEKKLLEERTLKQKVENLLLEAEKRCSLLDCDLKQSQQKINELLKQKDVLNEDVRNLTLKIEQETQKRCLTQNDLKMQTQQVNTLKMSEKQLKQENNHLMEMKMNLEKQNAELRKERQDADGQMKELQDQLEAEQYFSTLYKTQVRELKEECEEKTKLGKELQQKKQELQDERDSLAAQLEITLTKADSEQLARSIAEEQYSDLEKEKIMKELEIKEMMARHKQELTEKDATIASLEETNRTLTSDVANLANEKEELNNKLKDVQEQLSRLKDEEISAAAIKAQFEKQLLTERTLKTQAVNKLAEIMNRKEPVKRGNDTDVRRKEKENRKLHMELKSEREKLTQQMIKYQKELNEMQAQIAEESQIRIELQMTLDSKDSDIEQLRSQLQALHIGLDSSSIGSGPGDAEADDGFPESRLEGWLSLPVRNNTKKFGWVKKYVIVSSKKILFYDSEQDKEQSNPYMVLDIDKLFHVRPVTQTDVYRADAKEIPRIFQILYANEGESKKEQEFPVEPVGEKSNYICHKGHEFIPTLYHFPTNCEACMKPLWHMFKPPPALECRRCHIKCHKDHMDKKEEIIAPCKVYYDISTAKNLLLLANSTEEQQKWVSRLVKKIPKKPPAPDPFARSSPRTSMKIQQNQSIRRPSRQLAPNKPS
Dual specificity mitogen-activated protein kinase kinase 2 (Homo sapiens), sequence (P36507 whole entry): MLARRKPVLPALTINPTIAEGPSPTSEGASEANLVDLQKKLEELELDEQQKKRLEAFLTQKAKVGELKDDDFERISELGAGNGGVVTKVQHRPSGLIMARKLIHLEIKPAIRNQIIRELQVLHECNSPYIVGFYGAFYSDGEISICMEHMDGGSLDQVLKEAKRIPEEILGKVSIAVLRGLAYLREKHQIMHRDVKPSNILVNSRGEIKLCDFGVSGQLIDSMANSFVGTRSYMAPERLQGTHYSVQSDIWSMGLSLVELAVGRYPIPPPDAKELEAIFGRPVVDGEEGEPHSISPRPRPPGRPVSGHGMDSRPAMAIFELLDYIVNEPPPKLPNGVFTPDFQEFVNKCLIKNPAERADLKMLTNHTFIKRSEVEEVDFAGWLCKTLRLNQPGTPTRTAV
Myosin light chain kinase, smooth muscle, sequence (Q15746 whole entry): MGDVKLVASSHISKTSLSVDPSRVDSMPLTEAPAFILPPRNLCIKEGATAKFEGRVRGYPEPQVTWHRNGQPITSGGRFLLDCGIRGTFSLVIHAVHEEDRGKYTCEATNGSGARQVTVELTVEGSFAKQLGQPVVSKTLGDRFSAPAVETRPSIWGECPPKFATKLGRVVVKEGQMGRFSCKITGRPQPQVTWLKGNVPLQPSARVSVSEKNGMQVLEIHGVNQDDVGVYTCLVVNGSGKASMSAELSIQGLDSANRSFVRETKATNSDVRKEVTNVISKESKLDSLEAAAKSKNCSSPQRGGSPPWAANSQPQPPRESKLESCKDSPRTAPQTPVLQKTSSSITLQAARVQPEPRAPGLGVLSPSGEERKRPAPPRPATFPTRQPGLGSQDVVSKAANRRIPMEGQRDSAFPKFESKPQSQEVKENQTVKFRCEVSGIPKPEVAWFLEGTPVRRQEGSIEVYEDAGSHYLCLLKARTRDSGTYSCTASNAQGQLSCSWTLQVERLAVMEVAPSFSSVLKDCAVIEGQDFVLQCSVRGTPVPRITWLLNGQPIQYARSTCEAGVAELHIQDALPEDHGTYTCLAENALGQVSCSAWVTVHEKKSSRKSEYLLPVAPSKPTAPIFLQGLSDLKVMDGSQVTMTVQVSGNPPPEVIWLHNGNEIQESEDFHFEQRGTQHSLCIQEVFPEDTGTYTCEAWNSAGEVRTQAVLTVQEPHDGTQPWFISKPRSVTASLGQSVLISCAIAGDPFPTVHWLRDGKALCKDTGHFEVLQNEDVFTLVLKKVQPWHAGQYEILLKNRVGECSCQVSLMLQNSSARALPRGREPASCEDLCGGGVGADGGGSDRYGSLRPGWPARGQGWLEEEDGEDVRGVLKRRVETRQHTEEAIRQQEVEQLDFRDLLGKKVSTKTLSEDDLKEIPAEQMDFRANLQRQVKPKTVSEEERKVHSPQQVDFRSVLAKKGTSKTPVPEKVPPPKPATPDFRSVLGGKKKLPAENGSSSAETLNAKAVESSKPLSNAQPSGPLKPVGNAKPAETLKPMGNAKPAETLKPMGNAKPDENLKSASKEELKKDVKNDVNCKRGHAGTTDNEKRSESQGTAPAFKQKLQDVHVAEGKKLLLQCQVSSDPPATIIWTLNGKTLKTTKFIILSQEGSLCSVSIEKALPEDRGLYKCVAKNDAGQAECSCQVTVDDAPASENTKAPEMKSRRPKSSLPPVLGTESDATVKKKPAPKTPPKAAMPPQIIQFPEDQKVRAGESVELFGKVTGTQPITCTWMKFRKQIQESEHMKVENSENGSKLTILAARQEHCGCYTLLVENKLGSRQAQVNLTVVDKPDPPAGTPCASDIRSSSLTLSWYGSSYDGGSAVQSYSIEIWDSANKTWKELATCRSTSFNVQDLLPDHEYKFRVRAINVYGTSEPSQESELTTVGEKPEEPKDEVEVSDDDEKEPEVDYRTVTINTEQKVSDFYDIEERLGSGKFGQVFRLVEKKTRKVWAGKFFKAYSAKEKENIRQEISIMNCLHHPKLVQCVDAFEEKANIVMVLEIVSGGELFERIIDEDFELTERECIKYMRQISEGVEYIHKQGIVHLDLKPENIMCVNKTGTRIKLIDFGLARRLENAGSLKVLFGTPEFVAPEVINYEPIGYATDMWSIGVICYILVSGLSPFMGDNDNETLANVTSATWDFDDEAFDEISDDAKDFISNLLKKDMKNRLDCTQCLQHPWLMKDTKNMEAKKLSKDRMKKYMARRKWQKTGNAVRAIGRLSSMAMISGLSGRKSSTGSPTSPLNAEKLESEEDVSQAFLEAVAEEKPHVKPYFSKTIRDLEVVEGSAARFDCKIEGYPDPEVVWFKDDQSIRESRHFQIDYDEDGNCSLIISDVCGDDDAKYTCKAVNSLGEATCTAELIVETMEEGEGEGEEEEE

% of inhibition [1]: 21%
Structure (SMILES): Cc1ccc(-c2ccc3c(ccc4sc5c(c43)NC[C@@H](C)NC5=O)n2)cn1

% of inhibition [2]: 1%
Structure (SMILES): CC[C@@H]1[C@H](F)C(=O)N[C@@H]1COc1nccc2cc(C(N)=O)c(OC)cc12 [ZIMLOVISERTIB]

dTM [3]: -0.2 K
dTM [4]: 0.8 K
Structure (SMILES): CN(C(=O)c1cnn2cccnc12)c1cc2c(cc1N1CCOCC1)C(=O)N(C[C@@H](F)C(C)(C)O)C2

Structure (SMILES): COCC(=O)NC/C=C/c1ccc2ncnc(Nc3ccc(Oc4ccc(C)nc4)c(C)c3)c2c1 [CP-724714]
% of control [5]: 73%

Structure (SMILES): CN(C)C/C=C/C(=O)Nc1ccc(C(=O)N2CCCC(Nc3ncc(Cl)c(-c4c[nH]c5ccccc45)n3)C2)cc1 (stereo not drawn)
% of control [6]: 100%

% of control [7]: 9.6%
Structure (SMILES): CN(C)CC#Cc1ccc2[nH]c3c(c2c1)-c1nc(N)ncc1CCC3

dTM [8]: -2.24 K
Structure (SMILES): Cc1cc(CN)cc(C)c1-c1ncn(C)c1-c1cncn1C

Structure (SMILES): COc1cc(N(C)c2ccnc3ccc(C(F)(F)F)cc23)cc(OC)c1OC
% binding [9]: 93%
% binding [10]: 93%

Structure (SMILES): Cc1cc([C@@H](C)Nc2ccccc2C(=O)O)c2nc(N3CCOCC3)cc(=O)n2c1 [AZD-6482]
% of control [11]: 100%
% of control [12]: 91%

Structure (SMILES): N#Cc1cccc(-c2c[nH]c3ncnc(N4CCOCC4)c23)c1
% of inhibition [13]: 2%
